Assay results as given in patent US8247211B2, “Glycopeptide antibiotics” (American Cyanamid Company, priority 2001, dated 2012).
In brackets after ≈: the same amount, converted by molar mass.

Assays:
Test in all cases: In vitro antibacterial evaluation: minimum inhibitory concentration (MIC), broth dilution method
Format in all cases: cell-based
Conditions in all cases: 18 hours at 35° C.
Enterococcus sp. = tested on: Enterococcus sp.
Summary of the method: (§1)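 Inoculum: 5×10^5 CFU/mL. Range: 64-0.06 μg/mL. Medium: Muller-Hinton II […]; NCCLS M7-A2 broth dilution. Endpoint: lowest concentration inhibiting growth. Strains include methicillin-, penicillin- and/or vancomycin-resistant clinical isolates.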

Escherichia coli = tested on: Escherichia coli
Summary of the method: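 Susceptibility determined by NCCLS-recommended broth dilution (M7-A2), Muller-Hinton II […]. Concentration span 64-0.06 μg/mL, inoculum 5×10^5 CFU/mL. Isolates include strains resistant to methicillin, penicillin and/or vancomycin.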

Staphylococcus sp. = tested on: Staphylococcus sp.
Summary of the method: as §1

Streptococcus sp. = tested on: Streptococcus sp.
Summary of the method: as §1

[1] = broth dilution, inoculum 5×10^5 CFU/mL

- MIC Enterococcus avium (GC 4558) (Enterococcus sp.; Enterococcus avium (GC 4558)): 2 µg/mL (≈ 1.34 µM)
- MIC Enterococcus faecalis (ATCC 29212) (Enterococcus sp.; Enterococcus faecalis (ATCC 29212)): 4 µg/mL (≈ 2.69 µM)
- MIC Enterococcus faecalis (GC 2242) (Enterococcus sp.; Enterococcus faecalis (GC 2242)): 4 µg/mL (≈ 2.69 µM)
- MIC Enterococcus faecalis (GC 2691) (Enterococcus sp.; Enterococcus faecalis (GC 2691)): 2 µg/mL (≈ 1.34 µM)
- MIC Enterococcus faecalis (GC 3059) (Enterococcus sp.; Enterococcus faecalis (GC 3059)): 2 µg/mL (≈ 1.34 µM)
- MIC Enterococcus faecalis (GC 4552) (Enterococcus sp.; Enterococcus faecalis (GC 4552)): 4 µg/mL (≈ 2.69 µM)
- MIC Enterococcus faecalis (GC 4553) (Enterococcus sp.; Enterococcus faecalis (GC 4553)): 4 µg/mL (≈ 2.69 µM)
- MIC Enterococcus faecalis (GC 4554) (Enterococcus sp.; Enterococcus faecalis (GC 4554)): 4 µg/mL (≈ 2.69 µM)
- MIC Enterococcus faecalis (GC 6189) (Enterococcus sp.; Enterococcus faecalis (GC 6189)): 2 µg/mL (≈ 1.34 µM)
- MIC Enterococcus faecium (GC 2243) (Enterococcus sp.; Enterococcus faecium (GC 2243)): 2 µg/mL (≈ 1.34 µM)
- MIC Enterococcus faecium (GC 4556) (Enterococcus sp.; Enterococcus faecium (GC 4556)): 2 µg/mL (≈ 1.34 µM)
- MIC Enterococcus faecium (GC 4557) (Enterococcus sp.; Enterococcus faecium (GC 4557)): 2 µg/mL (≈ 1.34 µM)
- MIC Enterococcus faecalis (GC 2242) (Enterococcus sp.; [1]): 4 µg/mL (≈ 2.69 µM)
- MIC Enterococcus faecalis (GC 2691) (Enterococcus sp.; [1]): 2 µg/mL (≈ 1.34 µM)
- MIC Enterococcus faecalis (GC 3059) (Enterococcus sp.; [1]): 2 µg/mL (≈ 1.34 µM)
- MIC Escherichia coli (ATCC 25922) (Escherichia coli; Escherichia coli (ATCC 25922)): >64 µg/mL
- MIC Escherichia coli (GC 4559) (Escherichia coli; Escherichia coli (GC 4559)): >64 µg/mL
- MIC Escherichia coli (GC 4560) (Escherichia coli; Escherichia coli (GC 4560)): 2 µg/mL (≈ 1.34 µM)
- MIC Coagulase Negative Staphylococcus (GC 4547) (Staphylococcus sp.; Coagulase Negative Staphylococcus (GC 4547)): 4 µg/mL (≈ 2.69 µM)
- MIC Coagulase Negative Staphylococcus (GC 4548) (Staphylococcus sp.; Coagulase Negative Staphylococcus (GC 4548)): 2 µg/mL (≈ 1.34 µM)
- MIC Coagulase Negative Staphylococcus (GC 4549) (Staphylococcus sp.; Coagulase Negative Staphylococcus (GC 4549)): 1 µg/mL (≈ 0.672 µM)
- MIC Coagulase Negative Staphylococcus (GC 4551) (Staphylococcus sp.; Coagulase Negative Staphylococcus (GC 4551)): 4 µg/mL (≈ 2.69 µM)
- MIC Coagulase Negative Staphylococcus (GC 6257) (Staphylococcus sp.; Coagulase Negative Staphylococcus (GC 6257)): 1 µg/mL (≈ 0.672 µM)
- MIC Staphylococcus aureus (ATCC 29213) (Staphylococcus sp.; Staphylococcus aureus (ATCC 29213)): 2 µg/mL (≈ 1.34 µM)
- MIC Staphylococcus aureus (GC 1131) (Staphylococcus sp.; Staphylococcus aureus (GC 1131)): 2 µg/mL (≈ 1.34 µM)
- MIC Staphylococcus aureus (GC 3051) (Staphylococcus sp.; Staphylococcus aureus (GC 3051)): 2 µg/mL (≈ 1.34 µM)
- MIC Staphylococcus aureus (GC 3053) (Staphylococcus sp.; Staphylococcus aureus (GC 3053)): 2 µg/mL (≈ 1.34 µM)
- MIC Staphylococcus aureus (GC 4541) (Staphylococcus sp.; Staphylococcus aureus (GC 4541)): 2 µg/mL (≈ 1.34 µM)
- MIC Staphylococcus aureus (GC 4542) (Staphylococcus sp.; Staphylococcus aureus (GC 4542)): 2 µg/mL (≈ 1.34 µM)
- MIC Staphylococcus aureus (GC 4544) (Staphylococcus sp.; Staphylococcus aureus (GC 4544)): 4 µg/mL (≈ 2.69 µM)
- MIC Staphylococcus aureus (GC 4545) (Staphylococcus sp.; Staphylococcus aureus (GC 4545)): 2 µg/mL (≈ 1.34 µM)
- MIC Staphylococcus aureus-SMITH (GC 4543) (Staphylococcus sp.; Staphylococcus aureus-SMITH (GC 4543)): 2 µg/mL (≈ 1.34 µM)
- MIC Streptococcus agalactiae (GC 4564) (Streptococcus sp.; Streptococcus agalactiae (GC 4564)): <0.06 µg/mL
- MIC Streptococcus pneumoniae (ATCC 6301) (Streptococcus sp.; Streptococcus pneumoniae (ATCC 6301)): <0.06 µg/mL
- MIC Streptococcus pneumoniae (GC 1894) (Streptococcus sp.; Streptococcus pneumoniae (GC 1894)): <0.06 µg/mL
- MIC Streptococcus pneumoniae (GC 4565) (Streptococcus sp.; Streptococcus pneumoniae (GC 4565)): <0.06 µg/mL
- MIC Streptococcus pyogenes (GC 4563) (Streptococcus sp.; Streptococcus pyogenes (GC 4563)): <0.06 µg/mL
- MIC Streptococcus agalactiae (GC 4564) (Streptococcus sp.; [1]): <0.06 µg/mL
- MIC Streptococcus pneumoniae (ATCC 6301) (Streptococcus sp.; [1]): <0.06 µg/mL
- MIC Streptococcus pneumoniae (GC 1894) (Streptococcus sp.; [1]): <0.06 µg/mL
- MIC Streptococcus pneumoniae (GC 4565) (Streptococcus sp.; [1]): <0.06 µg/mL
- MIC Streptococcus pyogenes (GC 4563) (Streptococcus sp.; [1]): <0.06 µg/mL
SMILES: CC(c1ccccc1)C1NC(=O)CNC(=O)C(CO)NC(=O)C(C(O)C2CNC(=N)N2C2OC(CO)C(O)C(O)C2O)NC(=O)C(C(O)C2CNC(=N)N2)NC(=O)C(Cc2ccc(OC3OC(CO)C(OC4OC(CO)C(OCC=C(c5ccccc5)c5ccccc5)C(O)C4O)C(O)C3O)cc2)NC1=O (stereo not drawn) [Example 241a, Cyclo[glycyl-β-methylphenylalanyl-O-[4-O-[4-O-(3,3-diphenylprop-2-en-1-yl)hexopyranosyl]-hexopyranosyl]tyrosyl-3-(2-iminoimidazolidin-4-yl)seryl-3-[3-hexopyranosyl-2-iminoimidazolidin-4-yl)serylseryl]]
- MIC Staphylococcus haemolyticus (GC 4546) (Staphylococcus sp.; Staphylococcus haemolyticus (GC 4546)): 2 µg/mL (≈ 1.34 µM)
